From patent US20080044390A1, “Methods and compositions for the treatment of neurodegenerative disorders” (priority 2006, published 2008)
Counter-ions that a name gives are not always drawn.

Tests used:
PC12/HttN90Q103 cells [1] = experiment: CellTiter-Blue assay, rescue of HttN90Q103-induced cell death; type: cell-based, rat
Text: (§1) In this stable PC12 line (PC12/HttN90Q103), transcription of the Htt transgene is driven by an ecdysone-regulated promoter such that the expression of HttN90Q103 can be turned on or off by the addition or removal of the non-steroidal ecdysone analog tebufenozide (teb).
(§2) Using the engineered PC12/HttN90Q103 cell line together with Perkin Elmer's ATPlite™ assay kit or CellTiter-Blue™ assay, a high throughput assay to screen small molecules for their ability to prevent mutant Htt exon 1-induced cell death was developed and optimized.
(§3) The following formulas were used to calculate mutant Htt-induced cytotoxicity and test compound rescue: % killing=[(un-induced−induced-DMSO treated)/un-induced]×100 % rescue=[(drug treated−induced-DMSO treated)/(un-induced−induced-DMSO treated)]×100
For single-agent ranking, the assay was performed in 384-well plates to obtain duplicate dose response curves in 12-step dilutions with a dosing ratio f=2 over 3 orders of magnitude.
The uncertainty of each fitted parameter was estimated from the range over which the change in reduced chi-squared was less than one, or less than minimum reduced chi-squared if that minimum exceeded one, to allow for underestimated σI errors.
(§4) Day 1—Add Compounds 4 hours post-induction • 1) Remove compound plates from dessicator. • 2) Using the PlateMate, prepare dilution plate with 100 μL per well of the complete cell medium at room temperature in clear untreated 384-well plates. • 3) Using the MiniTrak, make compound dilution plates: 1 μL from each well of stock plates into 100 μL of media in the dilution plate for a 1:100 dilution (10× stock in media). • 4) Using the MiniTrak, add 4.5 μL of the diluted stock to each well of cells in assay plates. • 5) Make positive control solution: dilute 20 mM stock of BOC-D-FMK in media for a 10× stock. • 6) Manually add 4.5 μL positive control to C1-N1. • 7) Incubate plates at 37° C. for three days. • (for ranking combinations, steps 5 and 6 are omitted as there is positive control on the compound plates)
Day 4—CellTiter-Blue™ assay • 1) Make solution of 5% CellTiter-Blue™ in Q103 media. • 2) Using the Multidrop, add 40 μL of 5% CellTiter-Blue™ solution to each well of the assay plates. • 3) Incubate plates with CellTiter-Blue™ at 37° C.

PC12/HttN90Q103 cells [2] = experiment: ATPlite assay, rescue of HttN90Q103-induced cell death; type: cell-based, rat; conditions: Rattus norvegicus, PC-12, ATPlite, single agent; for Emax: 250 nM tebufenozide induction, read-out: Max Effect (% rescue); for EC50: sigmoidal fit of 12-step dose response, read-out: EC50
Text: as §1, §2, §3
For single-agent ranking, the assay was performed in 384-well plates to obtain duplicate dose response curves in 12-step dilutions with a dosing ratio f=2 over 3 orders of magnitude. […]
as §4
Day 4—Perform ATPlite™ Assay • 1) Take plates out of the incubator. • 2) Using the PlateMate, add 40 μL of ATPlite™ 1-step solution (Perkin Elmer) to each well of the assay plates. • 3) Wait ten minutes to allow plates to dark-adapt. • 4) Read luminescence intensity in Wallac plate reader using […]

[3] = Rattus norvegicus, PC-12, CellTiter-Blue, single agent, 250 nM tebufenozide induction, read-out: Max Effect (% rescue)
[4] = Rattus norvegicus, PC-12, CellTiter-Blue, single agent, sigmoidal fit of 12-step dose response, read-out: EC50
[5] = CellTiter-Blue, single agent, 250 nM tebufenozide induction
[6] = CellTiter-Blue, single agent, sigmoidal fit of 12-step dose response, read-out: EC50

SMILES	Emax (PC12/HttN90Q103 cells [1]; [3]) [%]	EC50 (PC12/HttN90Q103 cells [1]; [4]) [µM]	further results
Oc1ccc(Cl)cc1Cc1ccccc1 [Clorophene]	30	0.9	
C[N+](C)(C)CCOC(N)=O [Carbachol]	15	6.8	
Cl.NCCc1ccc(S(=O)(=O)F)cc1 [Pefabloc SC]			Max Effect (% rescue) (PC12/HttN90Q103 cells [1]; [5]): 34%; EC50 (PC12/HttN90Q103 cells [1]; [6]): 6.8 µM
O=c1cc(-c2ccccc2)oc2cc(O)cc(O)c12 [Chrysin]	14	1.1	
c1ccc2c(c1)[I+]c1ccccc1-2 [Diphenyleneiodonium]	26	0.1	
Cc1c(C)c2c(c(C)c1O)CCC(C)(COc1ccc(CC3SC(=O)NC3=O)cc1)O2 (stereo not drawn) [Troglitazone]	49	17.8	
CC(=O)[C@H]1CC[C@H]2[C@@H]3CC=C4C[C@@H](O)CC[C@]4(C)[C@H]3CC[C@]12C [Pregnenolone, 5-pregnen-3β-ol-20-one]			Max Effect (% rescue) (PC12/HttN90Q103 cells [1]; [5]): 22%; EC50 (PC12/HttN90Q103 cells [1]; [6]): 11.9 µM
COC(=O)CC[C@@H](C)[C@H]1CC[C@H]2[C@@H]3[C@H](OC(C)=O)C[C@@H]4C[C@H](OC(C)=O)CC[C@]4(C)[C@H]3CC[C@]12C [Chenodeoxycholic acid diacetate methyl ester]			Max Effect (% rescue) (PC12/HttN90Q103 cells [1]; [5]): 24%; EC50 (PC12/HttN90Q103 cells [1]; [6]): 2.1 µM
CO[C@@H]1[C@@H](OC(N)=O)[C@@H](O)[C@H](Oc2ccc3c(O)c(NC(=O)c4ccc(O)c(CC=C(C)C)c4)c(=O)oc3c2C)OC1(C)C [Novobiocin]	27	3	
Cc1ccc(C(=O)Cn2c3c(sc2=N)CCCC3)cc1 [Pifithrin α, 2-(2-imino-4,5,6,7-tetrahydrobenzothiazol-3-yl)-1-p-tolylethanone hydrobromide]	15	6	
C=CC[C@@H]1/C=C(\C)C[C@H](C)C[C@H](OC)[C@H]2O[C@@](O)(C(=O)C(=O)N3CCCC[C@H]3C(=O)O[C@H](/C(C)=C/[C@@H]3CC[C@@H](O)[C@H](OC)C3)[C@H](C)[C@@H](O)CC1=O)[C@H](C)C[C@@H]2OC [Tacrolimus (FK-506), Tacrolimus]	36	0.1	
CN1c2c(nc(N)[nH]c2=O)NCC1CNc1ccc(C(=O)N[C@@H](CCC(=O)O)C(=O)O)cc1 (stereo partly drawn) [5-methyl-5-6-7-8-tetrahydropteroylglutamic-acid]			Max Effect (% rescue) (PC12/HttN90Q103 cells [1]; [5]): 34%; EC50 (PC12/HttN90Q103 cells [1]; [6]): 9.3 µM
C[C@]12CC[C@H](O)CC1=CC[C@@H]1[C@@H]2CC[C@]2(C)C(=O)CC[C@@H]12 [Dehydroepiandrosterone]	21	11	
C[C@]12C=CC(=O)C=C1CC[C@@H]1[C@@H]2CC[C@]2(C)OC(=O)CC[C@@H]12 [Testolactone]	52	7.6	
C[C@H]1O[C@@H](O[C@H]2[C@@H](O)C[C@H](O[C@H]3[C@@H](O)C[C@H](O[C@H]4CC[C@@]5(C)[C@H](CC[C@@H]6[C@@H]5CC[C@]5(C)[C@@H](C7=CC(=O)OC7)CC[C@]65O)C4)O[C@@H]3C)O[C@@H]2C)C[C@H](O)[C@@H]1O [Digitoxin]	11	3.5	
O=C1NCCC1=Cc1ccc2c(c1)OCO2 [Heat shock protein inhibitor I (KNK-437), 3,4-methylenedioxy-benzylidine-γ-butyrolactam]			Max Effect (% rescue) (PC12/HttN90Q103 cells [1]; [5]): 20%; EC50 (PC12/HttN90Q103 cells [1]; [6]): 8.2 µM
C=C[C@@]1(C)CC(=O)[C@]2(O)[C@@]3(C)[C@@H](O)CCC(C)(C)[C@@H]3[C@H](OC(=O)CCN(C)C)[C@H](OC(C)=O)[C@@]2(C)O1 [NKH-477, 6-(3-dimethylaminopropionyl)forskolin]			Max Effect (% rescue) (PC12/HttN90Q103 cells [1]; [5]): 69%; EC50 (PC12/HttN90Q103 cells [1]; [6]): 7.2 µM
C=C1/C(=C\C=C2/CCC[C@]3(C)[C@@H]([C@H](C)CCCC(C)(C)O)CC[C@@H]23)C[C@@H](O)C[C@@H]1O [Calcitriol]			EC50 (PC12/HttN90Q103 cells [1]; Rattus norvegicus, PC-12): 0.01 µM; Emax (PC12/HttN90Q103 cells [1]; Rattus norvegicus, PC-12, read-out: Max Effect (% rescue)): 33%
COc1ccc(CNC(=O)Nc2ncc([N+](=O)[O-])s2)cc1 [GSK-3β inhibitor VIII (AR-A014418), N-(4-Methoxybenzyl)-N′-(5-nitro-1,3-thiazol-2-yl)urea]	43	3.6	
C=C1C[C@@H]2[C@H](CC[C@]3(C)C(=O)CC[C@@H]23)[C@@]2(C)C=CC(=O)C=C12 [Exemestane]	16	1.5	
CC(=O)c1ccc(S(=O)(=O)NC(=O)NC2CCCCC2)cc1 [Acetohexamide]	18	3.9	
NC(=O)c1ncn([C@@H]2O[C@H](CO)[C@@H](O)[C@H]2O)c1N [Aicar]			Max Effect (% rescue) (PC12/HttN90Q103 cells [1]; [5]): 23%; EC50 (PC12/HttN90Q103 cells [1]; [6]): 14.1 µM
Nc1c2c(nc3ccccc13)CCCC2 [Tacrine]			Emax (PC12/HttN90Q103 cells [2]): 15%; EC50 (PC12/HttN90Q103 cells [2]): 39.6 µM
Cc1ncc(CSSCc2cnc(C)c(O)c2CO)c(CO)c1O [Pyritinol]			Emax (PC12/HttN90Q103 cells [2]): 17%; EC50 (PC12/HttN90Q103 cells [2]): 15.1 µM
